Data reported in PubChem BioAssay (NCI).
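Cultured in 96-well plates, cells were exposed to test compound for 48 hours across five concentrations. GI50: concentration for 50% inhibition of growth. TGI is the concentration that stops growth completely.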

Assays:
Test in all cases: inhibition of tumour cell growth, NCI panel, 48 h
[1] = tested on: 786-0 renal
[2] = tested on: A498 renal
[3] = tested on: A549 NSCLC
[4] = tested on: ACHN renal
[5] = tested on: BT-549 breast
[6] = tested on: CAKI-1 renal
[7] = tested on: CCRF-CEM leukemia
[8] = tested on: COLO 205 colon
[9] = tested on: DU-145 prostate
[10] = tested on: EKVX NSCLC
[11] = tested on: HCC-2998 colon
[12] = tested on: HCT-116 colon
[13] = tested on: HCT-15 colon
[14] = tested on: HL-60(TB) leukemia
[15] = tested on: HOP-62 NSCLC
[16] = tested on: HOP-92 NSCLC
[17] = tested on: HS 578T breast
[18] = tested on: HT29 colon
[19] = tested on: IGROV1 ovarian
[20] = tested on: KM12 colon
[21] = tested on: LOX IMVI melanoma
[22] = tested on: M14 melanoma
[23] = tested on: MALME-3M melanoma
[24] = tested on: MDA-MB-231 breast
[25] = tested on: MDA-MB-435
[26] = tested on: MOLT-4 leukemia
[27] = tested on: NCI-H226 lung
[28] = tested on: NCI-H23 lung
[29] = tested on: NCI-H460 lung
[30] = tested on: NCI-H522 lung
[31] = tested on: NCI/ADR-RES ovarian
[32] = tested on: OVCAR-3 ovarian
[33] = tested on: OVCAR-4 ovarian
[34] = tested on: OVCAR-5 ovarian
[35] = tested on: OVCAR-8 ovarian
[36] = tested on: RPMI-8226 leukemia
[37] = tested on: RXF 393 renal
[38] = tested on: SF-268 CNS
[39] = tested on: SF-295 CNS
[40] = tested on: SF-539 CNS
[41] = tested on: SK-MEL-2 melanoma
[42] = tested on: SK-MEL-5 melanoma
[43] = tested on: SK-OV-3 ovarian
[44] = tested on: SN12C renal
[45] = tested on: SNB-19 CNS
[46] = tested on: SR leukemia
[47] = tested on: SW-620 colon
[48] = tested on: T-47D breast
[49] = tested on: TK-10 renal
[50] = tested on: U251 CNS
[51] = tested on: UACC-257 melanoma
[52] = tested on: UO-31 renal

COc1cc2c3c(n(CCCN(C)C)c(=O)c2cc1OC)-c1cc2c(cc1C3=O)OCO2
GI50 [1]: 79.9 nM
TGI [1]: 583 nM
GI50 [2]: 9920 nM
TGI [2]: 33400 nM
GI50 [3]: 515 nM
TGI [3]: 2290 nM
GI50 [4]: 146 nM
TGI [4]: 1140 nM
GI50 [5]: 1400 nM
TGI [5]: 3440 nM
GI50 [6]: 368 nM
TGI [6]: 1770 nM
GI50 [7]: < 10 nM
TGI [7]: 403 nM
GI50 [8]: 944 nM
TGI [8]: 11700 nM
GI50 [9]: 144 nM
TGI [9]: 1690 nM
GI50 [10]: 1460 nM
TGI [10]: 3390 nM
GI50 [11]: < 35.7 nM
GI50 [12]: 220 nM
TGI [12]: 1870 nM
GI50 [13]: 331 nM
GI50 [14]: 1010 nM
TGI [14]: 3330 nM
GI50 [15]: 18.2 nM
TGI [15]: 421 nM
GI50 [16]: 1840 nM
TGI [16]: 10600 nM
GI50 [17]: 2300 nM
TGI [17]: 5930 nM
GI50 [18]: 70.2 nM
TGI [18]: 1780 nM
GI50 [19]: 1040 nM
TGI [19]: 2380 nM
GI50 [20]: 678 nM
TGI [20]: 2680 nM
GI50 [21]: 66.2 nM
TGI [21]: 1580 nM
GI50 [22]: 422 nM
TGI [22]: 1930 nM
GI50 [23]: 163 nM
TGI [23]: 1980 nM
GI50 [24]: 972 nM
TGI [24]: 2760 nM
GI50 [25]: 650 nM
TGI [25]: 2130 nM
GI50 [26]: < 10 nM
TGI [26]: 3400 nM
GI50 [27]: 1400 nM
TGI [27]: 5880 nM
GI50 [28]: 165 nM
TGI [28]: 1590 nM
GI50 [29]: 281 nM
TGI [29]: 3370 nM
GI50 [30]: 805 nM
TGI [30]: 4740 nM
GI50 [31]: 67.8 nM
TGI [31]: 564 nM
GI50 [32]: 1330 nM
TGI [32]: 2910 nM
GI50 [33]: 467 nM
TGI [33]: 2880 nM
GI50 [34]: 1200 nM
TGI [34]: 2440 nM
GI50 [35]: 432 nM
TGI [35]: 3040 nM
GI50 [36]: 182 nM
TGI [36]: 1190 nM
GI50 [37]: 2480 nM
TGI [37]: > 100000 nM
GI50 [38]: 1110 nM
TGI [38]: 5590 nM
GI50 [39]: 38.7 nM
TGI [39]: 1650 nM
GI50 [40]: 162 nM
TGI [40]: 1310 nM
GI50 [41]: 3450 nM
TGI [41]: 13100 nM
GI50 [42]: 436 nM
TGI [42]: 2090 nM
GI50 [43]: 1290 nM
TGI [43]: 4330 nM
GI50 [44]: 935 nM
TGI [44]: 2750 nM
GI50 [45]: 554 nM
TGI [45]: 6120 nM
GI50 [46]: < 10 nM
TGI [46]: 112 nM
TGI [47]: 1900 nM
GI50 [48]: 496 nM
TGI [48]: 3940 nM
GI50 [49]: 1480 nM
TGI [49]: 3260 nM
GI50 [50]: 127 nM
TGI [50]: 4000 nM
GI50 [51]: 1180 nM
TGI [51]: 2840 nM
GI50 [52]: 926 nM
TGI [52]: 2260 nM
